In US8846788B2, “Polyacetal resin composition, resin molded article, and method and agent for improving polyacetal resin raw material composition” (Mitsubishi Engineering-Plastics Corporation, priority 2008, dated 2014):

Experiment: Vapor pressure at 20° C.
Assay type: physicochemical
Settings: not given

SMILES	vapor pressure
CC(C)(c1ccccc1)c1cc(-n2nc3ccccc3n2)c(O)c(C(C)(C)c2ccccc2)c1 [Tinuvin 234, 2-(2H-benzotriazol-2-yl)-4,6-bis(1-methyl-1-phenylethyl)phenol]	2.0×10^−10 Pa

Experiment: Solubility relative to 100 g of water at 20° C.
Assay type: physicochemical
Settings: per 100 g of water

solubility relative to 100 g of water	SMILES
≤ 0.01 g	NNC(=O)c1ccc(C(=O)NN)cc1 [Dihydrazide compound-1, terephthalic acid dihydrazide]
9.1 g	NNC(=O)CCCCC(=O)NN [Dihydrazide compound-3, adipic acid dihydrazide, reference compound]
≤ 0.2 g	NNC(=O)C(=O)NN [oxalic acid dihydrazide]

SMILES	solubility relative to 100 g of water
NNC(=O)CCCCCCCCCCCCCCCCCCC(=O)NN [1,18-octadecane dicarbohydrazide]	≤ 0.1 g
NNC(=O)CCCCCCCCCCC(=O)NN [Dihydrazide compound-2, 1,10-dodecane diacid dihydrazide]	≤ 0.01 g
